In ChEMBL document CHEMBL1201862, “PubChem BioAssay data set” (2004):
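96-well plates; 48 h exposure; 5 concentrations. Endpoints by linear interpolation between flanking doses. Not reached: highest tested concentration assigned. GI50 marks 50% less growth.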 Active and inactive are the calls of the source. Cut-off read from the data, not from the text of the source: active = GI50 up to about 1.1 µM and inactive = higher.

Assays:
Assay in all cases: NCI tumour cell line growth inhibition, 48 h
K562 = test system: K562
RPMI-8226 = test system: RPMI-8226
HT-29 = test system: HT-29
SK-OV-3 = test system: SK-OV-3
HCT-116 = test system: HCT-116
OVCAR-5 = test system: OVCAR-5
KM12 = test system: KM12
NCI-H226 = test system: NCI-H226
RXF 393 = test system: RXF 393
NCI-H460 = test system: NCI-H460
HOP-62 = test system: HOP-62
SN12C = test system: SN12C
HCT-15 = test system: HCT-15
NCI-H23 = test system: NCI-H23
A498 = test system: A498
SK-MEL-2 = test system: SK-MEL-2
HL-60 = test system: HL-60
SF-539 = test system: SF-539
UACC-257 = test system: UACC-257
A549 = test system: A549

| Compound | GI50 (K562) | GI50 (RPMI-8226) | GI50 (HT-29) | GI50 (SK-OV-3) | GI50 (HCT-116) | GI50 (OVCAR-5) | GI50 (KM12) | GI50 (NCI-H226) | GI50 (RXF 393) | GI50 (NCI-H460) | GI50 (HOP-62) | GI50 (SN12C) | GI50 (HCT-15) | GI50 (NCI-H23) | GI50 (A498) | GI50 (SK-MEL-2) | GI50 (HL-60) | GI50 (SF-539) | GI50 (UACC-257) | GI50 (A549) |
| --- | --- | --- | --- | --- | --- | --- | --- | --- | --- | --- | --- | --- | --- | --- | --- | --- | --- | --- | --- | --- |
| O=C1CCCC/C1=C1/SC(=N/c2ccccc2)/C(=N\c2ccccc2)N1c1ccccc1 | > 100 µM (inactive) | > 100 µM (inactive) | > 100 µM (inactive) | > 100 µM (inactive) | > 100 µM (inactive) | > 100 µM (inactive) | > 100 µM (inactive) | 23.4 µM (inactive) | 0.0378 µM (active) | > 100 µM (inactive) | 36.1 µM (inactive) | > 100 µM (inactive) | > 100 µM | > 100 µM (inactive) | > 100 µM (inactive) | > 100 µM (inactive) | > 100 µM (inactive) |  |  |  |
| CN(C)CCOc1cc2c(c3ccccc13)-c1ccccc1C2O (stereo not drawn) | 18.6 µM (inactive) | 12.6 µM (inactive) | 13.5 µM (inactive) | 16.1 µM (inactive) | 13.2 µM (inactive) | 13 µM (inactive) | 14.8 µM (inactive) | 13.7 µM (inactive) | 1.47 µM (inactive) | 7.21 µM (inactive) | 14.9 µM (inactive) | 13.4 µM (inactive) | 12.4 µM | 16.9 µM (inactive) | 15 µM (inactive) | 17.2 µM (inactive) | 11.6 µM (inactive) | 14.3 µM (inactive) | 15.5 µM (inactive) | 15.5 µM (inactive) |
| C/C=C(/C)C(=O)O[C@H]1[C@H]2[C@@H]([C@@H](OC(C)=O)[C@H](C)C(=O)[C@@]34C[C@@H](C)C(=O)[C@]3(/C=C(\C)[C@H]1OC(C)=O)O4)C2(C)C | 2.6 µM (inactive) | 3.35 µM (inactive) |  | 16 µM (inactive) | 3.1 µM (inactive) | 3.94 µM (inactive) | 5.58 µM (inactive) | 3.51 µM (inactive) | 3.6 µM (inactive) | 1.31 µM (inactive) | 3.15 µM (inactive) | 2.42 µM (inactive) | 3 µM | 6.46 µM (inactive) | 4.75 µM (inactive) | 4.27 µM (inactive) | 0.305 µM (active) | 3.1 µM (inactive) | 4.09 µM (inactive) |  |
| Cc1c(N2C(=O)/C(=C/c3ccc(N(CCC#N)CCC#N)cc3)N=C2c2ccccc2)c(=O)n(-c2ccccc2)n1C |  | > 100 µM (inactive) | > 100 µM (inactive) | > 100 µM (inactive) | > 100 µM (inactive) | > 100 µM (inactive) | > 100 µM (inactive) | > 100 µM (inactive) | > 100 µM (inactive) | > 100 µM (inactive) | > 100 µM (inactive) | > 100 µM (inactive) | 70 µM | > 100 µM (inactive) | > 100 µM (inactive) | > 100 µM (inactive) | 96.2 µM (inactive) | > 100 µM (inactive) | > 100 µM (inactive) | > 100 µM (inactive) |
| CN(C)C(=O)Oc1c(Br)cc(Br)cc1C(=O)OCc1ccccc1 | 28.2 µM (inactive) | 19.5 µM (inactive) | 13.5 µM (inactive) | 44.9 µM (inactive) | 14.5 µM (inactive) | 28.3 µM (inactive) | 28.7 µM (inactive) | 28.7 µM (inactive) | 38.4 µM (inactive) | 21.8 µM (inactive) | 28.2 µM (inactive) | 20.8 µM (inactive) | 26.2 µM | 30.6 µM (inactive) | 23 µM (inactive) | 27.7 µM (inactive) | 21.4 µM (inactive) | 26.6 µM (inactive) | 26.5 µM (inactive) | 28.1 µM (inactive) |
| COc1cccc(C2c3cc4c(cc3OC(NNS(=O)(=O)c3ccc(C)cc3)C2C)OCO4)c1O (stereo not drawn) | 10.2 µM (inactive) | 6.31 µM (inactive) | 17.9 µM (inactive) | 38.8 µM (inactive) | 15.3 µM (inactive) | 52.4 µM (inactive) | 20.3 µM (inactive) | 27.9 µM (inactive) | 21.3 µM (inactive) | 21.8 µM (inactive) | 22.3 µM (inactive) | 37 µM (inactive) | 23.5 µM | 29.2 µM (inactive) | 25.5 µM (inactive) | 17.4 µM (inactive) | 18 µM (inactive) | 21.6 µM (inactive) | 19.7 µM (inactive) | 18.6 µM (inactive) |
| Nc1nc2ccc3ccccc3c2[nH]1 | > 10 µM (inactive) | > 10 µM (inactive) | > 10 µM (inactive) | > 10 µM (inactive) | > 10 µM (inactive) | > 10 µM (inactive) | > 10 µM (inactive) | 8.51 µM (inactive) | > 10 µM (inactive) | > 10 µM (inactive) | > 10 µM (inactive) | > 10 µM (inactive) | > 10 µM | > 10 µM (inactive) | > 10 µM (inactive) | > 10 µM (inactive) | > 10 µM (inactive) | > 10 µM (inactive) |  | > 10 µM (inactive) |
